This is an account of results in PubChem BioAssay AID1259407 (Chemical Carcinogenesis Research Information System (CCRIS), 2018).

For this data set, the system named is CCRIS mutagenicity, Ames/micronucleus/aberration tests. In words: CCRIS mutagenicity studies.

Activity calls are given as the source filed them. No rule for the calls is given here.

Turning to `CC/C(C)=N\O`, the mutagenic call was “inactive; negative” (Test System: AMES SALMONELLA TYPHIMURIUM, Strain/Indicator: TA97, Metabolic Activation: HAMSTER LIVER S-9, AROCLOR 1254, 30%, Method: PREINCUBATION); “inactive; negative” (Test System: AMES SALMONELLA TYPHIMURIUM, Strain/Indicator: TA97, Metabolic Activation: NONE, Method: PREINCUBATION); “inactive; negative” (Test System: AMES SALMONELLA TYPHIMURIUM, Strain/Indicator: TA97, Metabolic Activation: RAT LIVER S-9, AROCLOR 1254, 30%, Method: PREINCUBATION); “inactive; negative” (Test System: AMES SALMONELLA TYPHIMURIUM, Strain/Indicator: TA98, Metabolic Activation: HAMSTER LIVER S-9, AROCLOR 1254, 30%, Method: DESICCATOR); “inactive; negative” (Test System: AMES SALMONELLA TYPHIMURIUM, Strain/Indicator: TA98, Metabolic Activation: HAMSTER LIVER S-9, AROCLOR 1254, 30%, Method: PREINCUBATION); “inactive; negative” (Test System: AMES SALMONELLA TYPHIMURIUM, Strain/Indicator: TA98, Metabolic Activation: HAMSTER, LIVER, S-9, AROCLOR 1254, Method: STANDARD PLATE). Besides, the mutagenic call is “inactive; negative” (Test System: AMES SALMONELLA TYPHIMURIUM, Strain/Indicator: TA98, Metabolic Activation: NONE, Method: DESICCATOR); “inactive; negative” (Test System: AMES SALMONELLA TYPHIMURIUM, Strain/Indicator: TA98, Metabolic Activation: NONE, Method: PREINCUBATION); “inactive; negative” (Test System: AMES SALMONELLA TYPHIMURIUM, Strain/Indicator: TA98, Metabolic Activation: NONE, Method: STANDARD PLATE); “inactive; negative” (Test System: AMES SALMONELLA TYPHIMURIUM, Strain/Indicator: TA98, Metabolic Activation: RAT LIVER S-9, AROCLOR 1254, 30%, Method: DESICCATOR); “inactive; negative” (Test System: AMES SALMONELLA TYPHIMURIUM, Strain/Indicator: TA98, Metabolic Activation: RAT LIVER S-9, AROCLOR 1254, 30%, Method: PREINCUBATION); “inactive; negative” (Test System: AMES SALMONELLA TYPHIMURIUM, Strain/Indicator: TA98, Metabolic Activation: RAT, LIVER, S-9, AROCLOR 1254, Method: STANDARD PLATE). The mutagenic call was “inactive; negative” (Test System: AMES SALMONELLA TYPHIMURIUM, Strain/Indicator: TA100, Metabolic Activation: HAMSTER LIVER S-9, AROCLOR 1254, 30%, Method: DESICCATOR); “inactive; negative” (Test System: AMES SALMONELLA TYPHIMURIUM, Strain/Indicator: TA100, Metabolic Activation: HAMSTER LIVER S-9, AROCLOR 1254, 30%, Method: PREINCUBATION); “inactive; negative” (Test System: AMES SALMONELLA TYPHIMURIUM, Strain/Indicator: TA100, Metabolic Activation: HAMSTER, LIVER, S-9, AROCLOR 1254, Method: STANDARD PLATE); “inactive; negative” (Test System: AMES SALMONELLA TYPHIMURIUM, Strain/Indicator: TA100, Metabolic Activation: NONE, Method: DESICCATOR); “inactive; negative” (Test System: AMES SALMONELLA TYPHIMURIUM, Strain/Indicator: TA100, Metabolic Activation: NONE, Method: PREINCUBATION); “inactive; negative” (Test System: AMES SALMONELLA TYPHIMURIUM, Strain/Indicator: TA100, Metabolic Activation: NONE, Method: STANDARD PLATE). Besides, the mutagenic call runs as follows: (Test System: AMES SALMONELLA TYPHIMURIUM, Strain/Indicator: TA100, Metabolic Activation: RAT LIVER S-9, AROCLOR 1254, 30%, Method: DESICCATOR) “inactive; negative”; (Test System: AMES SALMONELLA TYPHIMURIUM, Strain/Indicator: TA100, Metabolic Activation: RAT LIVER S-9, AROCLOR 1254, 30%, Method: PREINCUBATION) “inactive; negative”; (Test System: AMES SALMONELLA TYPHIMURIUM, Strain/Indicator: TA100, Metabolic Activation: RAT, LIVER, S-9, AROCLOR 1254, Method: STANDARD PLATE) “inactive; negative”; (Test System: AMES SALMONELLA TYPHIMURIUM, Strain/Indicator: TA1535, Metabolic Activation: HAMSTER LIVER S-9, AROCLOR 1254, 30%, Method: PREINCUBATION) “active; positive”; (Test System: AMES SALMONELLA TYPHIMURIUM, Strain/Indicator: TA1535, Metabolic Activation: HAMSTER, LIVER, S-9, AROCLOR 1254, Method: STANDARD PLATE) “inactive; negative”; (Test System: AMES SALMONELLA TYPHIMURIUM, Strain/Indicator: TA1535, Metabolic Activation: NONE, Method: PREINCUBATION) “inactive; negative”. Moreover, the mutagenic call was “inactive; negative” (Test System: AMES SALMONELLA TYPHIMURIUM, Strain/Indicator: TA1535, Metabolic Activation: NONE, Method: STANDARD PLATE); “inactive; negative” (Test System: AMES SALMONELLA TYPHIMURIUM, Strain/Indicator: TA1535, Metabolic Activation: RAT LIVER S-9, AROCLOR 1254, 30%, Method: PREINCUBATION); “inactive; negative” (Test System: AMES SALMONELLA TYPHIMURIUM, Strain/Indicator: TA1535, Metabolic Activation: RAT, LIVER, S-9, AROCLOR 1254, Method: STANDARD PLATE); “inactive; negative” (Test System: AMES SALMONELLA TYPHIMURIUM, Strain/Indicator: TA1537, Metabolic Activation: HAMSTER, LIVER, S-9, AROCLOR 1254, Method: STANDARD PLATE); “inactive; negative” (Test System: AMES SALMONELLA TYPHIMURIUM, Strain/Indicator: TA1537, Metabolic Activation: NONE, Method: STANDARD PLATE); “inactive; negative” (Test System: AMES SALMONELLA TYPHIMURIUM, Strain/Indicator: TA1537, Metabolic Activation: RAT, LIVER, S-9, AROCLOR 1254, Method: STANDARD PLATE). Also, the mutagenic call is, setting by setting: (Test System: AMES SALMONELLA TYPHIMURIUM, Strain/Indicator: TA1538, Metabolic Activation: HAMSTER, LIVER, S-9, AROCLOR 1254, Method: STANDARD PLATE) “inactive; negative”; (Test System: AMES SALMONELLA TYPHIMURIUM, Strain/Indicator: TA1538, Metabolic Activation: NONE, Method: STANDARD PLATE) “inactive; negative”; (Test System: AMES SALMONELLA TYPHIMURIUM, Strain/Indicator: TA1538, Metabolic Activation: RAT, LIVER, S-9, AROCLOR 1254, Method: STANDARD PLATE) “inactive; negative”; (Test System: MOUSE LYMPHOMA, Strain/Indicator: L5178Y (TK+/TK-), Metabolic Activation: NONE, Method: SUSPENSION/PLATE) “active; positive. reevaluation of results: positive”; (Test System: MOUSE LYMPHOMA, Strain/Indicator: L5178Y (TK+/TK-), Metabolic Activation: RAT, LIVER, S-9, AROCLOR 1254, Method: SUSPENSION/PLATE) “inactive; negative. reevaluation of results: negative”.
On to `Cc1cc(N=Nc2ccccc2)c(N)cc1N`, for which the mutagenic call (Test System: AMES SALMONELLA TYPHIMURIUM, Strain/Indicator: TA100, Metabolic Activation: HUMAN, LIVER, S-9, Method: PREINCUBATION) was “inactive; negative”; the mutagenic call (Test System: AMES SALMONELLA TYPHIMURIUM, Strain/Indicator: TA100, Metabolic Activation: RAT, LIVER, HEPATOCYTES, Method: PREINCUBATION) is “inactive; negative”; the mutagenic call (Test System: AMES SALMONELLA TYPHIMURIUM, Strain/Indicator: TA100, Metabolic Activation: RAT, LIVER, S-9, BETA-NAPHTHOFLAVONE, Method: PREINCUBATION) is “active; positive”; the mutagenic call (Test System: AMES SALMONELLA TYPHIMURIUM, Strain/Indicator: TA100, Metabolic Activation: RAT, LIVER, S-9, PHENOBARBITAL, Method: PREINCUBATION) was “active; positive”; the mutagenic call (Test System: AMES SALMONELLA TYPHIMURIUM, Strain/Indicator: TA100, Metabolic Activation: RAT, LIVER, S-9, Method: PREINCUBATION) is “active; positive”; the mutagenic call (Test System: UDS RODENT HEPATOCYTES, Strain/Indicator: THY INCORP, Metabolic Activation: NONE, Method: AUTORADIOGRAPHY) is “active; positive”.
With `O=C1CC(O)C(O)c2ccc3c4c(ccc3c21)CCC4` (stereo not drawn), the mutagenic call runs as follows: (Test System: AMES SALMONELLA TYPHIMURIUM, Strain/Indicator: TA100, Metabolic Activation: RAT, LIVER, MICROSOMES, 15,16-DIHYDROCYCLOPENTA[A]PHENANTHREN-17-ONE, Method: STANDARD PLATE) “inactive; negative”; (Test System: AMES SALMONELLA TYPHIMURIUM, Strain/Indicator: TA100, Metabolic Activation: RAT, LIVER, MICROSOMES, AROCLOR 1254, Method: STANDARD PLATE) “active; positive”; (Test System: AMES SALMONELLA TYPHIMURIUM, Strain/Indicator: TA100, Metabolic Activation: RAT, LIVER, MICROSOMES, BENZO[A]PYRENE, Method: STANDARD PLATE) “active; positive”; (Test System: AMES SALMONELLA TYPHIMURIUM, Strain/Indicator: TA100, Metabolic Activation: RAT, LIVER, MICROSOMES, CLOFIBRATE, Method: STANDARD PLATE) “inactive; negative”; (Test System: AMES SALMONELLA TYPHIMURIUM, Strain/Indicator: TA100, Metabolic Activation: RAT, LIVER, MICROSOMES, DEXAMETHASONE, Method: STANDARD PLATE) “inactive; negative”; (Test System: AMES SALMONELLA TYPHIMURIUM, Strain/Indicator: TA100, Metabolic Activation: RAT, LIVER, MICROSOMES, ISONIAZID, Method: STANDARD PLATE) “inactive; negative”. Moreover, the mutagenic call (Test System: AMES SALMONELLA TYPHIMURIUM, Strain/Indicator: TA100, Metabolic Activation: RAT, LIVER, MICROSOMES, PHENOBARBITONE, Method: STANDARD PLATE) is “inactive; negative”.
